Data published in BindingDB's records for doi:10.1016/s0960-894x(01)00543-1 (Harvard Medical School, 2001).

Assay: Binding affinity towards Opioid receptor delta 1 in guinea pig brain membranes using [3H]naltrindole as radioligand

Row | Compound | Ki
1 | Oc1ccc2c(c1)C[C@@H]1[C@@H]3CCCC[C@]23CCN1C/C=C/I | 27 nM
2 | Oc1ccc2c(c1)C[C@@H]1[C@@H]3CCCCC23CCN1CCC(O)c1ccco1 (stereo partly drawn) [1-(2-furyl)-3-[5-hydroxy-(1R,9R,10R)-17-azatetracyclo[7.5.3.01,10.02,7]heptadeca-2(7),3,5-trien-17-yl]-1-propanol] | 29 nM
3 | O=C(CCN1CCC23CCCC[C@H]2[C@H]1Cc1cc(O)ccc13)c1ccco1 [1-(2-furyl)-3-[5-hydroxy-(1R,9R,10R)-17-azatetracyclo[7.5.3.01,10.02,7]heptadeca-2(7),3,5-trien-17-yl]-1-propanone] | 42 nM
4 | N#CCCN1CCC23CCCC[C@H]2[C@H]1Cc1cc(O)ccc13 [2-[5-hydroxy-(1R,9R,10R)-17-azatetracyclo[7.5.3.01,10.02,7]heptadeca-2(7),3,5-trien-17-yl]ethyl cyanide] | 2.6 nM
5 | O=C(CCN1CCC23CCCC[C@H]2[C@H]1Cc1cc(O)ccc13)c1cccs1 [3-[5-hydroxy-(1R,9R,10R)-17-azatetracyclo[7.5.3.01,10.02,7]heptadeca-2(7),3,5-trien-17-yl]-1-(2-thienyl)-1-propanone] | 10 nM
6 | O=C(CCN1CCC23CCCC[C@H]2[C@H]1Cc1cc(O)ccc13)c1ccccc1 [3-[5-hydroxy-(1R,9R,10R)-17-azatetracyclo[7.5.3.01,10.02,7]heptadeca-2(7),3,5-trien-17-yl]-1-phenyl-1-propanone] | 23 nM
7 | N#CCCCN1CCC23CCCC[C@H]2[C@H]1Cc1cc(O)ccc13 [3-[5-hydroxy-(1R,9R,10R)-17-azatetracyclo[7.5.3.01,10.02,7]heptadeca-2(7),3,5-trien-17-yl]propyl cyanide] | 3.1 nM
8 | CCOCCN1CCC23CCCC[C@H]2[C@H]1Cc1cc(O)ccc13 [17-(2-ethoxyethyl)-(1R,9R,10R)-17-azatetracyclo[7.5.3.01,10.02,7]heptadeca-2(7),3,5-trien-5-ol] | 5.6 nM
9 | Oc1ccc2c(c1)C[C@@H]1[C@@H]3CCCCC23CCN1CCC(F)(F)F [17-(3,3,3-trifluoropropyl)-(1R,9R,10R)-17-azatetracyclo[7.5.3.01,10.02,7]heptadeca-2(7),3,5-trien-5-ol] | 27 nM
10 | Oc1ccc2c(c1)C[C@@H]1[C@@H]3CCCCC23CCN1CCCF [17-(3-fluoropropyl)-(1R,9R,10R)-17-azatetracyclo[7.5.3.01,10.02,7]heptadeca-2(7),3,5-trien-5-ol] | 0.85 nM
11 | Oc1ccc2c(c1)C[C@@H]1[C@@H]3CCCCC23CCN1CC1CCCCC1 [17-(N-cyclohexylmethyl)-(1R,9R,10R)-17-azatetracyclo[7.5.3.01,10.02,7]heptadeca-2(7),3,5-trien-5-ol] | 69 nM
12 | C=CCN1CCC23CCCC[C@H]2[C@H]1Cc1cc(O)ccc13 [17-allyl-(1R,9R,10R)-17-azatetracyclo[7.5.3.01,10.02,7]heptadeca-2(7),3,5-trien-5-ol] | 4.1 nM
13 | Oc1ccc2c(c1)C[C@@H]1[C@@H]3CCCCC23CCN1Cc1ccccc1 [17-benzyl-(1R,9R,10R)-17-azatetracyclo[7.5.3.01,10.02,7]heptadeca-2(7),3,5-trien-5-ol] | 420 nM
14 | Oc1ccc2c(c1)C[C@@H]1[C@@H]3CCCCC23CCN1CC1CCCC1 [17-cyclopentylmethyl-17-azatetracyclo[7.5.3.01,10.02,7]heptadeca-2(7),3,5-trien-5-ol] | 6.9 nM
15 | Oc1ccc2c(c1)C[C@@H]1[C@@H]3CCCCC23CCN1CCc1ccccc1 [17-phenethyl-(1R,9R,10R)-17-azatetracyclo[7.5.3.01,10.02,7]heptadeca-2(7),3,5-trien-5-ol] | 3.1 nM
16 | CC(C)CN1CCC23CCCC[C@H]2[C@H]1Cc1cc(O)ccc13 [MCL-108] | 5.6 nM
17 | COCCN1CCC23CCCC[C@H]2[C@H]1Cc1cc(O)ccc13 [MCL-110] | 0.54 nM
18 | Oc1ccc2c(c1)C[C@@H]1[C@@H]3CCCCC23CCN1Cc1ccco1 [MCL-119] | 8.5 nM
19 | Oc1ccc2c(c1)C[C@@H]1[C@@H]3CCCCC23CCN1CCC(O)c1ccccc1 (stereo partly specified) [MCL-121] | 130 nM
20 | Oc1ccc2c(c1)C[C@@H]1[C@@H]3CCCCC23CCN1CCC(O)c1cccs1 (stereo partly specified) [MCL-122] | 110 nM
21 | Oc1ccc2c(c1)C[C@@H]1[C@@H]3CCCCC23CCN1CCOc1ccccc1 [MCL-127] | 33 nM
